In this data set the test system is Friend Leukämie Virus. Nature of the data set: FLV model of the mouse (Friend leukaemia virus infection, relative spleen weight). It counts as in vivo. The settings on record: i.p.; for rel.Milzgewicht in % Körpergew.: start 2 days after infection, spleen 14 days after infection. The text has this:
Da für die HIV-Infektion des Menschen kein überzeugendes Infektionsmodell bei Labortieren existiert, muß bei der Prüfung von Chemotherapeutika auf Infektionen mit anderen Retroviren zurückgegriffen werden. Im vorliegenden Falle wurde die Infektion der Maus mit dem Friend Leukämie Virus gewählt.
Normale Labormäuse (NMRI = Naval Medical Research Institute) wurden durch intravenöse Injektion mit Friend-Virus enthaltendem Mäuseserum infiziert. Bei den unbehandelten Kontrolltieren entwickelt sich als Symptom der Infektion innerhalb von 2 Wochen bzw. 3 Wochen eine deutliche Vergrößerung von Milz und Leber. Die Behandlung erfolgt über 10 Tage bei intraperitonealer Applikation und über 16 Tage bei oraler Applikation der Testsubstanzen. Bei intraperitonealer Gabe der Testsubstanzen beginnt die Behandlung 48 Stunden nach der Infektion, bei peroraler Gabe der Testsubstanz 4 Tage vor der Infektion. Am 14. Tag nach Infektion werden die Tiere durch Luxation der Halswirbel getötet und geöffnet. Die Milz wird entnommen und gewogen. Als Meßparameter der therapeutischen Wirksamkeit wird das Milzgewicht der behandelten Tiere mit den der unbehandelten Infektionskontrolle in Relation gesetzt.
Für die orale Applikation werden die Prüfsubstanzen in Trinkwasser gelöst. Alle 24 Stunden werden die Trinkwasserbehälter mit jeweils 100 ml Inhalt gewechselt. Aus dem täglich ermittelten Verbrauch an Trinkwasser pro Versuchskollektiv wird die durchschnittliche Dosismenge errechnet, die einer Maus pro 24 Stunden appliziert wurde.
Während bei uninfizierten, ausgewachsenen Labormäusen (20 - 24 g Körpergewicht) die Milz weniger als 1 % des Körpergewichtes wiegt, erreicht bei infizierten Tieren die Milz am Ende des Versuchs etwa bis zu 10 % des Körpergewichtes.
Als Vergleichspräparate dienen Suramin (= 3,3′-Ureylen-bis-(8-(3-benzamido-4-methylbenzamido)-naphthalin-1,3,5-trisulfonsäure|) bei intraperitonealer Gabe bzw. Pentosanpolysulfat bei intraperitonealer und oraler Gabe.

For the compound `Cc1ccc(C(=O)Nc2ccc(S(=O)(=O)O)c3cc(S(=O)(=O)O)cc(S(=O)(=O)O)c23)cc1NC(=O)c1cccc(NC(=O)Nc2cccc(C(=O)Nc3cc(C(=O)Nc4ccc(S(=O)(=O)O)c5cc(S(=O)(=O)O)cc(S(=O)(=O)O)c45)ccc3C)c2)c1` [Suramin, 3,3′-Ureylen-bis-(8-(3-benzamido-4-methylbenzamido)-naphthalin-1,3,5-trisulfonsäure|)], the “rel.Milzgewicht in % Körpergew.” value runs as follows: (10 x 0,1 mg/Maus, second series (Kontrolle 7,25)) 5,68 % Körpergew; (10 x 1,0 mg/Maus, first series (Kontrolle 6,41)) 4,96 % Körpergew. Also, the “Anzahl überlebender Mäuse n” value by setting is: (10 x 0,1 mg/Maus, second series (Kontrolle 10)) 10; (10 x 1,0 mg/Maus, first series (Kontrolle 10)) 10.

The values above are taken from patent EP0406685A1, “Substituted polysaccharides, method for their preparation as well as their use in prophylaxis and treatment of viral diseases” (HOECHST AKTIENGESELLSCHAFT, priority 1989, dated 1991).
